Key:
A375P cells = assay: Inhibition activity against proliferation of A375P melanoma cells (MTT assay); conditions: Homo sapiens, read-out: Inhibition activity against proliferation of A375P cells (GI50, μM)
SK-MEL28 cells = assay: Inhibition activity against proliferation of SK-MEL28 melanoma cells (MTT assay); conditions: Homo sapiens, SK-MEL-28, read-out: Inhibition activity against proliferation of SK-MEL28 cells (GI50, μM)

GI50 (A375P cells) [µM] | GI50 (SK-MEL28 cells) [µM] | SMILES
< 10 | < 10 | Nc1cc(-n2ccc3ccc(-c4cccc(NC(=O)Nc5ccc(C(F)(F)F)c(Cl)c5)c4)cc32)ncn1 [Example 2, 1-(3-(1-(6-aminopyrimidin-4-yl)-1H-indol-6-yl)phenyl)-3-(3-chloro-4-(trifluoromethyl)phenyl)urea]
< 10 |  | Nc1cc(-n2ccc3ccc(-c4cccc(NC(=O)Nc5ccccc5F)c4)cc32)ncn1 [Example 3, 1-(3-(1-(6-aminopyrimidin-4-yl)-1H-indol-6-yl)phenyl)-3-(2-fluorophenyl)urea]
< 10 |  | Nc1cc(-n2ccc3ccc(-c4cccc(NC(=O)Nc5ccc(Cl)c(Cl)c5)c4)cc32)ncn1 [Example 4, 1-(3-(1-(6-aminopyrimidin-4-yl)-1H-indol-6-yl)phenyl)-3-(3,4-dichlorophenyl)urea]
< 10 | < 10 | CC(C)(C#N)c1cccc(C(=O)Nc2cccc(-c3ccc4ccn(-c5cc(N)ncn5)c4c3)c2)c1 [Example 9, N-(3-(1-(6-aminopyrimidin-4-yl)-1H-indol-6-yl)phenyl)-3-(2-cyanopropan-2-yl)benzamide]
< 10 |  | COc1ccc(-c2ccc(C(=O)Nc3cccc(-c4ccc5ccn(-c6cc(N)ncn6)c5c4)c3)o2)cc1 [Example 10, N-(3-(1-(6-aminopyrimidin-4-yl)-1H-indol-6-yl)phenyl)-5-(4-methoxyphenyl)furan-2-carboxamide]
< 10 |  | Cc1cc(C(=O)Nc2cccc(-c3ccc4ccn(-c5cc(N)ncn5)c4c3)c2)c(C)o1 [Example 12, N-(3-(1-(6-aminopyrimidin-4-yl)-1H-indol-6-yl)phenyl)-2,5-dimethylfuran-3-carboxamide]
< 10 | < 10 | Cc1cc(C(=O)Nc2cccc(-c3ccc4ccn(-c5cc(N)ncn5)c4c3)c2)no1 [Example 13, N-(3-(1-(6-aminopyrimidin-4-yl)-1H-indol-6-yl)phenyl)-5-methylisoxazol-3-carboxamide]
< 10 |  | Nc1cc(-n2ccc3ccc(-c4cccc(NC(=O)c5cc(-c6ccc(Cl)cc6)on5)c4)cc32)ncn1 [Example 14, N-(3-(1-(6-aminopyrimidin-4-yl)-1H-indol-6-yl)phenyl)-5-(4-chlorophenyl)isoxazol-3-carboxamide]
< 10 |  | Nc1cc(-n2ccc3ccc(-c4cccc(NC(=O)c5cscn5)c4)cc32)ncn1 [Example 15, N-(3-(1-(6-aminopyrimidin-4-yl)-1H-indol-6-yl)phenyl)thiazol-4-carboxamide]
< 10 |  | Nc1cc(-n2ccc3ccc(-c4cccc(NC(=O)c5csc(-c6ccncc6)n5)c4)cc32)ncn1 [Example 16, N-(3-(1-(6-aminopyrimidin-4-yl)-1H-indol-6-yl)phenyl)-2-(pyridin-4-yl)thiazol-4-carboxamide]
< 10 |  | Nc1cc(-n2ccc3ccc(-c4cccc(NC(=O)c5cnn(-c6ccccc6)c5C(F)(F)F)c4)cc32)ncn1 [Example 17, N-(3-(1-(6-aminopyrimidin-4-yl)-1H-indol-6-yl)phenyl)-1-phenyl-5-(trifluoromethyl)-1H-pyrazol-4-carboxamide]
< 10 |  | Nc1cc(-n2ccc3ccc(-c4cccc(NC(=O)c5ccc(Br)s5)c4)cc32)ncn1 [Example 18, N-(3-(1-(6-aminopyrimidin-4-yl)-1H-indol-6-yl)phenyl)-5-bromothiophen-2-carboxamide]
< 10 |  | Cc1ccc(S(=O)(=O)Nc2cccc(-c3ccc4ccn(-c5cc(N)ncn5)c4c3)c2)cc1 [Example 20, N-(3-(1-(6-aminopyrimidin-4-yl)-1H-indol-6-yl)phenyl)-4-methylbenzenesulfonamide]
< 10 | < 10 | COc1ccccc1NC(=O)Nc1cccc(-c2ccc3ccn(-c4cc(NC5CC5)ncn4)c3c2)c1 [Example 23, 1-(3-(1-(6-(cyclopropylamino)pyrimidin-4-yl)-1H-indol-6-yl)phenyl)-3-(2-methoxyphenyl)urea]
< 10 | < 10 | COc1ccccc1NC(=O)Nc1cccc(-c2ccc3ccn(-c4cc(NCCN5CCOCC5)ncn4)c3c2)c1 [Example 24, 1-(2-methoxyphenyl)-3-(3-(1-(6-(2-morpholinoethylamino)pyrimidin-4-yl)-1H-indol-6-yl)phenyl)urea]
< 10 | < 10 | COc1ccccc1NC(=O)Nc1cccc(-c2ccc3ccn(-c4ccnc(N)n4)c3c2)c1 [Example 25, 1-(3-(1-(2-aminopyrimidin-4-yl)-1H-indol-6-yl)phenyl)-3-(2-methoxyphenyl)urea]
< 10 |  | O=C(Nc1cccc(-c2ccc3ccn(-c4cc(NC(=O)C5CC5)ncn4)c3c2)c1)Nc1ccccc1F [Example 27, N-(6-(6-(3-(3-(2-fluorophenyl)ureido)phenyl)-1H-indol-1-yl)pyrimidin-4-yl)cyclopropanecarboxamide]
< 10 |  | COc1ccccc1NC(=O)Nc1ccc(C)c(-c2ccc3ccn(-c4cc(NC(=O)C5CC5)ncn4)c3c2)c1 [Example 35, N-(6-(6-(5-(3-(2-methoxyphenyl)ureido)-2-methylphenyl)-1H-indol-1-yl)pyrimidin-4-yl)cyclopropanecarboxamide]
< 10 | < 10 | COc1ccccc1NC(=O)Nc1cccc(-c2ccc3ccn(-c4ncnc5[nH]ccc45)c3c2)c1 [Example 36, 1-(3-(1-(7H-pyrrolo[2,3-d]pyrimidin-4-yl)-1H-indol-6-yl)phenyl)-3-(2-methoxyphenyl)urea]

Second part, the molecule before the results:

SMILES | GI50 (A375P cells) [µM] | GI50 (SK-MEL28 cells) [µM]
Nc1cc(-n2ccc3ccc(-c4cccc(NC(=O)NC5CCCCC5)c4)cc32)ncn1 [Example 5, 1-(3-(1-(6-aminopyrimidin-4-yl)-1H-indol-6-yl)phenyl)-3-cyclohexylurea] | < 10 | < 10
Nc1cc(-n2ccc3ccc(-c4cccc(NC(=O)c5ccc(Cl)c(C(F)(F)F)c5)c4)cc32)ncn1 [Example 6, N-(3-(1-(6-aminopyrimidin-4-yl)-1H-indol-6-yl)phenyl)-4-chloro-3-(trifluoromethyl)benzamide] | < 10 | < 10
Nc1cc(-n2ccc3ccc(-c4cccc(NC(=O)c5cc(N6CCOCC6)cc(C(F)(F)F)c5)c4)cc32)ncn1 [Example 7, N-(3-(1-(6-aminopyrimidin-4-yl)-1H-indol-6-yl)phenyl)-3-morpholino-5-(trifluoromethyl)benzamide] | < 10 | < 10
Cc1cn(-c2cc(C(=O)Nc3cccc(-c4ccc5ccn(-c6cc(N)ncn6)c5c4)c3)cc(C(F)(F)F)c2)cn1 [Example 8, N-(3-(1-(6-aminopyrimidin-4-yl)-1H-indol-6-yl)phenyl)-3-(4-methyl-1H-imidazol-1-yl)-5-(trifluoromethyl)benzamide] | < 10 | < 10
Nc1cc(-n2ccc3ccc(-c4cccc(NC(=O)c5ccc(-c6cc(C(F)(F)F)ccc6Cl)o5)c4)cc32)ncn1 [Example 11] | < 10 | 
CN1CCC(Oc2ccc(C(=O)Nc3cccc(-c4ccc5ccn(-c6cc(N)ncn6)c5c4)c3)cc2C(F)(F)F)CC1 [Example 19, N-(3-(1-(6-aminopyrimidin-4-yl)-1H-indol-6-yl)phenyl)-4-(1-methylpiperidin-4-yloxy)-3-(trifluoromethyl)benzamide] | < 10 | 
O=C(Nc1cccc(-c2ccc3ccn(-c4cc(NC(=O)C5CC5)ncn4)c3c2)c1)Nc1ccc(Cl)c(Cl)c1 [Example 28, N-(6-(6-(3-(3-(3,4-dichlorophenyl)ureido)phenyl)-1H-indol-1-yl)pyrimidin-4-yl)cyclopropanecarboxamide] | < 10 | 
O=C(Nc1cccc(-c2ccc3ccn(-c4cc(NC(=O)C5CC5)ncn4)c3c2)c1)NC1CCCCC1 [Example 29, N-(6-(6-(3-(3-cyclohexylureido)phenyl)-1H-indol-1-yl)pyrimidin-4-yl)cyclopropanecarboxamide] | < 10 | 
O=C(Nc1cccc(-c2ccc3ccn(-c4cc(NC(=O)C5CC5)ncn4)c3c2)c1)c1ccc(Cl)c(C(F)(F)F)c1 [Example 30, 4-chloro-N-(3-(1-(6-(cyclopropanecarboxamido)pyrimidin-4-yl)-1H-indol-6-yl)phenyl)-3-(trifluoromethyl)benzamide] | < 10 | 
O=C(Nc1cccc(-c2ccc3ccn(-c4cc(NC(=O)C5CC5)ncn4)c3c2)c1)c1cc(N2CCOCC2)cc(C(F)(F)F)c1 [Example 31, N-(3-(1-(6-(cyclopropanecarboxamido)pyrimidin-4-yl)-1H-indol-6-yl)phenyl)-3-morpholino-5-(trifluoromethyl)benzamide] | < 10 | 
Cc1cn(-c2cc(C(=O)Nc3cccc(-c4ccc5ccn(-c6cc(NC(=O)C7CC7)ncn6)c5c4)c3)cc(C(F)(F)F)c2)cn1 [Example 32, N-(3-(1-(6-(cyclopropanecarboxamido)pyrimidin-4-yl)-1H-indol-6-yl)phenyl)-3-(4-methyl-1H-imidazol-1-yl)-5-(trifluoromethyl)benzamide] | < 10 | 
CC(C)(C#N)c1cccc(C(=O)Nc2cccc(-c3ccc4ccn(-c5cc(NC(=O)C6CC6)ncn5)c4c3)c2)c1 [Example 33, 3-(2-cyanopropan-2-yl)-N-(3-(1-(6-(cyclopropanecarboxamido)pyrimidin-4-yl)-1H-indol-6-yl)phenyl)benzamide] | < 10 | 
O=C(Nc1cccc(-c2ccc3ccn(-c4ncnc5[nH]ccc45)c3c2)c1)c1ccc(Cl)c(C(F)(F)F)c1 [Example 37, N-(3-(1-(7H-pyrrolo[2,3-d]pyrimidin-4-yl)-1H-indol-6-yl)phenyl)-4-chloro-3-(trifluoromethyl)benzamide] | < 10 | 

Reference: patent publication US8765749B2, “1,6-disubstituted indole compounds as protein kinase inhibitors” (Korea Institute of Science and Technology, priority 2009, dated 2014)
